Results published in patent publication US20220402948A1, “EGFR INHIBITOR, COMPOSITION AND PREPARATION METHOD THEREFOR” (BETTA PHARMACEUTICALS CO., LTD., priority 2019, published 2022).

Legend:
[1] = target: Ba/F3 cells with EGFR Δ19del/T790M/C797S mutation gene stably overexpressed (Homo sapiens, UniProt P00533, T790M/C797S, cells depend on it, form not given); experiment: Ba/F3-Δ19del/T790M/C797S cell proliferation assay (CellTiter Glo, 72 hours); format: cell-based; conditions: Table 2, read-out: EGFR Δ19del/T790M/C797S IC50
Procedure, shortened: (§1)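 Ba/F3 cells stably overexpressing wild-type EGFR or EGFR Δ19del/T790M/C797S were seeded at 2000 cells/well and incubated 72 h with compound. Viability was read by CellTiter-Glo luminescence, and IC50 came from a four-parameter logistic fit of signal against log concentration.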

[2] = target: EGFR WT (Homo sapiens, UniProt P00533); experiment: EGFR WT kinase test (mobility variation analysis, Caliper EZ Reader); format: biochemical; conditions: kinase enzymatic activity, Table 1
Procedure, shortened: (§2)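 Read-out is substrate-to-product conversion by mobility shift, stopped after incubation at room temperature with ATP and substrate, following a 10-minute room-temperature compound–enzyme pre-incubation. IC50 obtained by four-parameter variable-slope fitting of inhibition normalized between enzyme-free and uninhibited controls.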

[3] = target: IGF1R (Homo sapiens, UniProt P08069); experiment: IGF1R kinase test (mobility variation analysis, Caliper EZ Reader); format: biochemical; conditions: kinase enzymatic activity, Table 1; read-out: EGFR IGF1R IC50
Procedure, shortened: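 Mobility-shift readout of substrate conversion, normalised to positive (no compound) and negative (no kinase) controls, gives % inhibition and IC50 by four-parameter fit. Compounds, 3-fold dilutions over 10 concentrations starting at 3000 nM, preincubated 10 min with kinase before ATP/substrate start; room temperature.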

[4] = target: EGFRΔ19del/T790M/C797S (Homo sapiens, UniProt P00533, T790M/C797S, form not given); experiment: EGFR Δ19del/T790M/C797S kinase test (mobility variation analysis, Caliper EZ Reader); format: biochemical; conditions: kinase enzymatic activity, Table 1
Procedure, shortened: as §2

[5] = test system: A431; experiment: A431 cell proliferation assay (CellTiter Glo, 72 hours); format: cell-based; conditions: Homo sapiens, A-431, 72 h, cell proliferation, A431, 72 hours, Table 2; read-out: A431 IC50
Procedure, shortened: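 Luminescence (CellTiter-Glo) after 72 h treatment gives viability, fitted by nonlinear regression to yield IC50. Cells seeded at 2000 per well; nine 3-fold concentrations from 1000 nM, DMSO final 0.1% (0.5% for certain compounds).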

[6] = target: Ba/F3-EGFR wild-type cell line (Homo sapiens, UniProt P00533); experiment: Ba/F3-EGFR wild-type cell proliferation assay (CellTiter Glo, 72 hours); format: cell-based; conditions: Table 2, read-out: EGFR WT IC50
Procedure, shortened: as §1

Sequence of EGFRΔ19del/T790M/C797S (P00533 with tags, fused parts or gaps DEL746-750/T790M/C797S, form open): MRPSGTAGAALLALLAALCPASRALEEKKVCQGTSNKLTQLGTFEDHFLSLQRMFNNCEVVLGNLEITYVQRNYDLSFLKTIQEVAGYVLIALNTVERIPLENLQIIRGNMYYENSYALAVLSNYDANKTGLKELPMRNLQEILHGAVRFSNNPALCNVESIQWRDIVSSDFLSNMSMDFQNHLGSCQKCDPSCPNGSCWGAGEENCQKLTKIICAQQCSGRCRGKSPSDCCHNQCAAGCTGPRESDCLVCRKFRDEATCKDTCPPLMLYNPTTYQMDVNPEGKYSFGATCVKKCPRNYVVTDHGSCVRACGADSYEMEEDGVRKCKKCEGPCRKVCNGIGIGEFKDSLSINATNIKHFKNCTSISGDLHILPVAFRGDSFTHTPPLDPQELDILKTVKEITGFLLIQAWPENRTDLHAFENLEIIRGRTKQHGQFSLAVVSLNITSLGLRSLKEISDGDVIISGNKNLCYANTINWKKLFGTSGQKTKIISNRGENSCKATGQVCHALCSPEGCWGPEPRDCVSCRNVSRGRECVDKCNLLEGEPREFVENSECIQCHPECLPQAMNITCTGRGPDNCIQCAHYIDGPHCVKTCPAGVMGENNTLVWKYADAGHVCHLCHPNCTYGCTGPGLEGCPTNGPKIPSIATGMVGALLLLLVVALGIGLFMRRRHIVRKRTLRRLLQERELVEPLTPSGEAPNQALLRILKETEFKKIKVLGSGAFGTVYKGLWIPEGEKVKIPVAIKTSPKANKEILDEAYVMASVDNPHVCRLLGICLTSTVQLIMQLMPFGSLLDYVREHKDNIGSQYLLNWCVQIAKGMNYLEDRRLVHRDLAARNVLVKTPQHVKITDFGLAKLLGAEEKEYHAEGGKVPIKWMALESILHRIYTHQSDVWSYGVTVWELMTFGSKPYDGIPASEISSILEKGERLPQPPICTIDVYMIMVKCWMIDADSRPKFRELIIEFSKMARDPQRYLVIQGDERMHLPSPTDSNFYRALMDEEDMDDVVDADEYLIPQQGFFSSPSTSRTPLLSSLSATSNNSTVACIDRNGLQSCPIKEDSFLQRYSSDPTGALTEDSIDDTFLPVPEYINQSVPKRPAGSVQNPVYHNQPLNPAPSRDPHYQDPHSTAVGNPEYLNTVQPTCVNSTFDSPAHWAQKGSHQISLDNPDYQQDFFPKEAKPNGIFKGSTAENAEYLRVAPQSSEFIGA
Sequence of Ba/F3 cells with EGFR Δ19del/T790M/C797S mutation gene stably overexpressed (P00533 with tags, fused parts or gaps DEL746-750/T790M/C797S, form open): as above
Sequence of EGFR WT (P00533 25-1210): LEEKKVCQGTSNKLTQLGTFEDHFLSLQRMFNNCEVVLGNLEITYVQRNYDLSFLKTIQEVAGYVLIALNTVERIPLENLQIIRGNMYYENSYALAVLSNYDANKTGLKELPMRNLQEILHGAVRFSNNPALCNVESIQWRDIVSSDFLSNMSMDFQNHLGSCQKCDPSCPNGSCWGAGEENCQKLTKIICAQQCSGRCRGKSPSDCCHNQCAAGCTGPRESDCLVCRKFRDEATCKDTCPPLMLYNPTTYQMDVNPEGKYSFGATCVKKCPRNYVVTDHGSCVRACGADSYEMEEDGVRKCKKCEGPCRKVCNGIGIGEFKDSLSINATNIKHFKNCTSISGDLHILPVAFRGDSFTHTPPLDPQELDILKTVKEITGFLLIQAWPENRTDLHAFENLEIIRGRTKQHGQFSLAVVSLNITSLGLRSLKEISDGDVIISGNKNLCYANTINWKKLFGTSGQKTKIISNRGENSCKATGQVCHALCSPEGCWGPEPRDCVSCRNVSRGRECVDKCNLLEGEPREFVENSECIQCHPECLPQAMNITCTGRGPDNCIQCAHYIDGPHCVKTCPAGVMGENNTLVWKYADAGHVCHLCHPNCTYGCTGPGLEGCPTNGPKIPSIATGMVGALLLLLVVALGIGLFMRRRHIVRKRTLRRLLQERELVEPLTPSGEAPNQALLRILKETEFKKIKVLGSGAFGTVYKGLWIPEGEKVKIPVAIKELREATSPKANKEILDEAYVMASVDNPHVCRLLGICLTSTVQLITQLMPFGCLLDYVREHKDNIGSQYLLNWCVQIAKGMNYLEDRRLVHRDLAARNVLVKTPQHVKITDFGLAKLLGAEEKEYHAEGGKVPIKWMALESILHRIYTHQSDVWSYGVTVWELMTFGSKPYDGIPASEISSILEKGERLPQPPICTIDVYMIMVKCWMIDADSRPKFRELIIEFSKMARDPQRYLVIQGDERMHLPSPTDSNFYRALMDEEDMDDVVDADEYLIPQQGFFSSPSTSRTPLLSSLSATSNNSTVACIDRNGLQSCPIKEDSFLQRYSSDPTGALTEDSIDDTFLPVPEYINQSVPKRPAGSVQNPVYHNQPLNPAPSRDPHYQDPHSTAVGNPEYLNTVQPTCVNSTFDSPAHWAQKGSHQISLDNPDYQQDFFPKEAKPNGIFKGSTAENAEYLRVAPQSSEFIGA
Sequence of IGF1R (P08069 31-1367, species assumed): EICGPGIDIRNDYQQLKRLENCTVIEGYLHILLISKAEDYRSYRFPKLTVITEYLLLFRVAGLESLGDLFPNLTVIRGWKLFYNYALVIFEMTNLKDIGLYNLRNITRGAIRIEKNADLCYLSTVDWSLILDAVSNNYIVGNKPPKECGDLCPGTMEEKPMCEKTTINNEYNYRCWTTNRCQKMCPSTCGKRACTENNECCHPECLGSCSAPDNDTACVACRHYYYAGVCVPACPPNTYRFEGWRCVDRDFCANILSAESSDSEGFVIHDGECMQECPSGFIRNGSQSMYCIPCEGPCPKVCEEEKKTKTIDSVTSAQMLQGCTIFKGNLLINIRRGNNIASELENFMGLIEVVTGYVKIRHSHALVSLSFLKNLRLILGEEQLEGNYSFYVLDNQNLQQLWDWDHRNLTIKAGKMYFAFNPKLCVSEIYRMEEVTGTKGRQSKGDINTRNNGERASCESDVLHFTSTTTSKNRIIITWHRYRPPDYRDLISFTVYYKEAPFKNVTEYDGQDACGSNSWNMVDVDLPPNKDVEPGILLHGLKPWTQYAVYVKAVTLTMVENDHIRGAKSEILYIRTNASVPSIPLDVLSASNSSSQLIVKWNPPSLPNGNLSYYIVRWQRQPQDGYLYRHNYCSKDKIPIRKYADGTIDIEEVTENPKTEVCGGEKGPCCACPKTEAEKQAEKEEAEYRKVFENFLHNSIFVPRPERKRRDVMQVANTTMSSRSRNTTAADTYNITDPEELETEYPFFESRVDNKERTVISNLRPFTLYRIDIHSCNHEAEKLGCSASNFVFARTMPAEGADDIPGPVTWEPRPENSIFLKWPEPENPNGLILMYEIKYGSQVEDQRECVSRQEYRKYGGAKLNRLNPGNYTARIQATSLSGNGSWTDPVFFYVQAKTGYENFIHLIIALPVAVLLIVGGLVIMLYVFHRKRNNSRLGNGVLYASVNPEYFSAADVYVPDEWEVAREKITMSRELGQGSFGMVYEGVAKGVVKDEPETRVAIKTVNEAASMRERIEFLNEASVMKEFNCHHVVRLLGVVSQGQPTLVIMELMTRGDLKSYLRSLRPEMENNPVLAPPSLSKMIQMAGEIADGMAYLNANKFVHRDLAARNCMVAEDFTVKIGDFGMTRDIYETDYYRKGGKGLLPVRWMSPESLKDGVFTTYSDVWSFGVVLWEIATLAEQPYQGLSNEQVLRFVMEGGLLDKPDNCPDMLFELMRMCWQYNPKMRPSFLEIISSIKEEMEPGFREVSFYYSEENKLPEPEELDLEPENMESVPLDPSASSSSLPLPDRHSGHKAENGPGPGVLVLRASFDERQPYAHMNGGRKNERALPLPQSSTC

GI50 [1] [nM] | IC50 [2] [nM] | IC50 [3] [nM] | IC50 [4] [nM] | IC50 [5] [nM] | GI50 [6] [nM] | SMILES
4.3 | 15.9 | 71 | 0.4 | 815 | 206 | CCc1cc(Nc2ncc(Br)c(Nc3ccc(-c4cnn(C)c4)cc3P(C)(C)=O)n2)c(OC)cc1N1CCC(N2CCOCC2)CC1 [Compound K-042, (2-((5-Bromo-2-((5-ethyl-2-methoxy-4-(4-morpholinopiperidin-1-vi)phenyl)amino)pyrimidin-4-yl)amino)-5-(1-methyl-1-pyrazol-4-yl)phenyl)-dimethylphosphine oxide]
5.1 | 18.9 | 102 | 0.4 | 1030 | 162 | CCc1cc(Nc2ncc(Br)c(Nc3ccc(-c4ncccn4)cc3P(C)(C)=O)n2)c(OC)cc1N1CCC(N2CCN(C)CC2)CC1 [Compound 26, (2-((5-Bromo-2-((5-ethyl-2-methoxy-4-(4-(4-methylpiperazin-1-yl)piperidin-1-yl)phenyl)amino)pyrimidin-4-yl)amino)-5-(pyrimidin-2-yl)phenyl)dimethylphosphine oxide]
35 | 36.4 | 497 | 1.5 | 2960 | 1070 | CCc1cc(Nc2ncc(Br)c(Nc3ccc(-c4cnc5c(ccn5C)c4)cc3P(C)(C)=O)n2)c(OC)cc1N1CCC(N2CCN(C)CC2)CC1 [Compound 55]
9.5 | 169 | 259 | 0.3 | > 10000 | 400 | COc1cnn(-c2ccc(Nc3nc(Nc4cc(C)c(N5CCN(C6CCCC6)CC5)cc4OC)ncc3Br)c(P(C)(C)=O)c2)c1 [Compound K-089, (2-((5-Bromo-2-((4-(4-cyclopentylpiperazin-1-yl)-2-methoxy-5-methylphenyl)amino)pyrimidin-4-yl)amino)-5-(4-methoxy-1H-pyrazol-1-yl)phenyl)dimethylphosphine oxide]
3.6 | 7.8 | 21.5 | 0.2 | 615 | 132 | COc1cc(Nc2ncc(Br)c(Nc3ccc(-c4cnn(C)c4)cc3P(C)(C)=O)n2)c(C)cc1N1CCOCC1 [Compound K-030, (2-((5-Bromo-2-((5-methoxy-2-methyl-4-morpholinophenyl)amino)pyrimidin-4-yl)amino)-5-(1-methyl-1H-pyrazol-4-yl)phenyl)dimethylphosphine oxide]
7.5 | 15.6 | 72 | 0.3 | 871 | 159 | CCc1cc(Nc2ncc(Br)c(Nc3ccc(-c4ncco4)cc3P(C)(C)=O)n2)c(OC)cc1N1CCC(N2CCN(C)CC2)CC1 [Compound 27]
12 | 14.4 | 39.1 | 0.5 | 812 | 445 | COc1cc(Nc2ncc(Br)c(Nc3ccc(-c4cnccn4)cc3P(C)(C)=O)n2)c(C)cc1N1CCC(N2CCN(C)CC2)CC1 [Compound K-017, (2-((5-Bromo-2-((5-methoxy-2-methyl-4-(4-(4-methylpiperazin-1-yl)piperidin-1-yl)phenyl)amino)pyrimidin-4-yl)amino)-5-(pyrazin-2-yl)phenyl)dimethylphosphine oxide]
15.4 | 19.2 | 56.1 | 0.2 | 1040 | 114 | COc1cnn(-c2ccc(Nc3nc(Nc4cc(OC)c(N5CCC(N(C)C)CC5)cc4C)ncc3Br)c(P(C)(C)=O)c2)c1 [Compound K-038, (2-((5-Bromo-2-((4-(4-(dimethylamino)piperidin-1-yl)-5-methoxy-2-methylphenyl)amino)pyrimidine-4-yl)amino)-5-(4-methoxy-1H-pyrazol-1-yl)phenyl)dimethylphosphine oxide]
19.1 | 32 | 268 | 0.2 | 1510 | 343 | CCc1cc(Nc2ncc(Br)c(Nc3ccc(-n4cc(OC)cn4)cc3P(C)(C)=O)n2)c(OC)cc1N1CCC(N2CCN(C)CC2)CC1 [Compound K-054, (2-((5-Bromo-2-((5-ethyl-2-methoxy-4-(4-(4-methylpiperazin-1-yl)piperidin-1-yl)phenyl)amino)pyrimidin-4-yl)amino)-5-(4-methoxy-1H-pyrazol-1-yl)phenyl)dimethylphosphine oxide]
64.2 | 23.1 | 378 | 0.4 | 3250 | 204 | CCc1cc(Nc2ncc(Cl)c(Nc3ccc(-c4cnn5c4CCCC5)cc3P(C)(C)=O)n2)c(OC)cc1N1CCC(N2CCN(C)CC2)CC1 [Compound K-104, (2-((5-Chloro-2-((5-ethyl-2-methoxy-4-(4-(4-methylpiperazin-1-yl)piperidin-1-yl)phenyl)amino)pyrimidin-4-yl)amino)-5-(4,5,6,7-tetrahydropyrazolo[1,5-a]pyridin-3-yl)phenyl)dimethylphosphine oxide]
15.8 | 12.2 | 14.7 | 0.4 | 317 | 147 | CCc1cc(Nc2ncc(Br)c(Nc3ccc(-c4cnn(C)c4)c(OC)c3P(C)(C)=O)n2)c(OC)cc1N1CCC(N2CCN(C)CC2)CC1 [Compound K-041, (6-((5-Bromo-2-((5-ethyl-2-methoxy-4-(4-(4-methylpiperazin-1-yl)piperidin-1-yl)phenyl)amino)pyrimidin-4-yl)amino)-2-methoxy-3-(1-methyl-1H-pyrazol-4-yl)phenyl)dimethylphosphine oxide]
29.8 | 43 | 217 | 0.8 | 12600 | 95.6 | CCc1cc(Nc2ncc(Br)c(Nc3ccc(-c4ccccc4)cc3P(C)(C)=O)n2)c(OC)cc1N1CCC(N2CCOCC2)CC1 [Compound K-047, (4-((5-Bromo-2-((5-ethyl-2-methoxy-4-(4-morpholinopiperidin-1-yl)phenyl)amino)pyrimidin-4-yl)amino)-[1,1′-biphenyl]-3-yl)dimethylphosphine oxide]
4.2 | 35.8 | 253 | 0.4 | 2760 | 267 | CCc1cc(Nc2ncc(Br)c(Nc3ccc(-c4ccc(OC)cn4)cc3P(C)(C)=O)n2)c(OC)cc1N1CCC(N2CCN(C)CC2)CC1 [Compound K-074, (2-((5-Bromo-2-((5-ethyl-2-methoxy-4-(4-(4-methylpiperazin-1-yl)piperidin-1-yl)phenyl)amino)pyrimidin-4-yl)amino)-5-(5-methoxypyridin-2-yl)phenyl)dimethylphosphine oxide]
7.6 | 32.5 | 50.5 | 0.5 | 816 | 56 | C#Cc1cnc(-c2ccc(Nc3nc(Nc4cc(OC)c(N5CCC(N6CCN(C)CC6)CC5)cc4C)ncc3Br)c(P(C)(C)=O)c2)cn1 [Compound K-014, (2-((5-Bromo-2-((5-methoxy-2-methyl-4-(4-(4-methylpiperazin-1-yl)piperidin-1-yl)phenyl)imino)pyrimidin-4-yl)amino)-5-(5-ethynylpyrazin-2-yl)phenyl)dimethylphosphine oxide]
